Measured values as given in publication PMC9007951, “Systematically evaluating DOTATATE and FDG as PET immuno-imaging tracers of cardiovascular inflammation” (Scientific Reports, 2022).

Experiments:
[1] = Ex vivo autoradiography of heart and aorta; assay type: in vivo, mice; details: for ratio between the signal in infarcted and remote myocardium: MI mice, N = 4 per group
Procedure: Tissues (heart and aorta) were placed in a film cassette against a phosphorimaging plate (BASMS-2325, Fujifilm) at − 20 °C to determine the regional radioactivity distribution. Exposure time was optimized to dose, tracer, and tissue uptake differences. Tissues from the heart of [^18F]F-FDG injected animals were exposed for 5 min, [^18F]F-FDG infused aortas were exposed for 30 min and tissues from animals in the [^64Cu]Cu-DOTATATE group were exposed for 60 min. The plates were read at a pixel resolution of 25 μm with a Typhoon 7000IP plate reader (GE Healthcare, Pittsburgh, PA). Images were analyzed using ImageJ software v1.52 (Madison, WI).

atherosclerotic rabbits = assay: In vivo PET/MR imaging of aortic inflammation in rabbits; design: species or system New Zealand White rabbits; details: for SUVmax abdominal aorta: PET/MRI, median
Text: For the rabbit studies, 3 months old male New Zealand White (NZW) rabbits (N = 47) were purchased from Charles River Laboratories (Wilmington, MA). Randomly assigned control rabbits (N = 11) were kept on chow diet and imaged with PET/MR. Among these some animals were euthanized for biodistribution assays (N = 6) or used for time-activity characterization of aorta signal (N = 3). For the atherosclerosis model, remaining rabbits (N = 36) were placed on Western diet (initial 8 weeks on regular chow enriched with 0.3% cholesterol and 4.7% coconut oil, and the remaining time period on 0.15% enriched cholesterol diet from Research diets, Inc. Brunswick, NJ). In order to induce atherosclerotic lesions, these rabbits were subjected to two endothelial denudations of the aorta through the right and left femoral artery at 2 and 6 weeks after diet initiation, respectively, as described previously. Briefly, femoral artery angioplasty was performed under fluoroscopic guidance using a 4F-Fogarty embolectomy catheter. Once catheter is inserted, catheter is positioned in the thoracic descending aorta region. The balloon was then inflated to 2 atm. Catheter is then pulled back over the entire length of the aorta down to the iliac bifurcation, and the pullback procedure is repeated for two additional times. Catheter is then removed, and femoral artery is ligated. Rabbits with atherosclerosis were imaged 4 months after diet initiation (N = 36). Among these animals some were euthanized for ex vivo biodistribution analyses (N = 9), used for time-activity characterization of aorta signal (N = 3) or near infra-red imaging ([…]). The remaining atherosclerotic rabbits were fed a Western diet for an additional 3 months (N = 9) to advance atherosclerosis. At the end of the 3-month period, these rabbits were imaged and euthanized.
In vivo imaging in rabbits was performed on a 3 Tesla Biograph mMR (Siemens, Erlangen, Germany) Positron Emission Tomography/Magnetic Resonance Imaging (PET/MRI) clinical scanner. To establish the optimal imaging time-point for [^68Ga]Ga-DOTATATE aortic imaging in this animal model, 5 rabbits underwent dynamic PET imaging for 3 h immediately after injection of approximately 190 MBq of the tracer. Rabbits where injected intravenously via the ear vein with approximately 190 MBq of either [^18F]F- FDG or [^68Ga]Ga-DOTATATE. Rabbits undergoing [^18F]F-FDG scans were fasted for 3–4 h before injection to avoid tracer uptake in the bowels, as previously validated. […]
Using OsiriX v5.6 software (OsiriX Foundation, Geneva, Switzerland), regions of interest (ROIs) were drawn to determine organ radioactivity concentration. […]

[2] = [^64Cu]Cu-DOTATATE distribution in blood fractions (plasma vs cells); assay type: in vivo, mice; details: 120 min after radiotracer injection, mean ± SEM, N = 5
Procedure: Wild-type and atherosclerotic animals were injected with approximately 1.85 MBq of [^64Cu]Cu-DOTATATE and euthanized at either 1, 5, 15, 30, 60 or 120 min after injection (Supplementary Fig. S1A) to evaluate the tracer’s biodistribution. After euthanasia, an insulin syringe was used to collect blood samples from the right ventricle. Blood samples were used for the establishment of pharmacokinetics profile. Mice were then perfused with 20 mL of phosphate-buffered saline (PBS) and tissues of interest (heart, aorta, bone marrow, spleen, liver, stomach, bladder, kidneys, intestines, lungs, adrenal gland, muscles and pancreas) were harvested. Tissues were blotted for gamma counting on a Wizard2 2480 automatic gamma counter (Perkin Elmer, Waltham, MA). Values were corrected for decay and normalized to tissue weight to express radioactivity concentration as percentage injected dose per gram (%ID/g). […] To investigate the tracer’s distribution within different blood compartments, after gamma counting, 100 μL of blood were spun down at 2000 g for 15 min at 4 °C. Plasma (supernatant) and cells (pellet) were gamma counted and expressed as percentage of total activity. […] Percentage of activity in mononuclear and polynuclear cells was calculated.

| SMILES | ratio between the signal in infarcted and remote myocardium [1] | SUVmax abdominal aorta (atherosclerotic rabbits; athero4mo rabbits, circulation 120 min ([^68Ga]Ga-DOTATATE, N = 32) or 180 min ([^18F]F-FDG, N = 27)) | SUVmax abdominal aorta (atherosclerotic rabbits; athero7mo rabbits, N = 7) | SUVmax abdominal aorta (atherosclerotic rabbits; control rabbits, circulation 120 min ([^68Ga]Ga-DOTATATE, N = 10) or 180 min ([^18F]F-FDG, N = 11)) | blood radioactivity contained in plasma ([2]; atherosclerotic Apoe^−/− mice) | blood radioactivity contained in plasma ([2]; control C57Bl/6 mice) | signal in atherosclerotic plaques compared to healthy (no plaque) areas of the aorta ([1]; atherosclerotic mice, N = 4) | change of tracer accumulation (SUVmax abdominal aorta) athero7mo vs athero4mo (atherosclerotic rabbits; rabbits kept on Western Diet for 7 months, paired analysis, N = 7, p > 0.9999) |
| --- | --- | --- | --- | --- | --- | --- | --- | --- |
| OC[C@H]1OC(O)[C@H]([18F])[C@@H](O)[C@@H]1O (stereo partly drawn) [[^18F]F-FDG, [^18F]F-fluorodeoxyglucose] | ~1 | 0.446 | 0.515 | 0.349 |  |  |  |  |
| C[C@@H](O)[C@H](NC(=O)[C@@H]1CSSC[C@H](NC(=O)[C@@H](Cc2ccccc2)NC(=O)CN2CCN(CC(=O)O)CCN(CC(=O)O)CCN(CC(=O)O)CC2)C(=O)N[C@@H](Cc2ccc(O)cc2)C(=O)N[C@H](Cc2c[nH]c3ccccc23)C(=O)N[C@@H](CCCCN)C(=O)N[C@@H]([C@@H](C)O)C(=O)N1)C(=O)O [[^64Cu]Cu-DOTATATE, metal not drawn] | approximately 2 |  |  |  | 88.7 ± 0.9% | 83.4 ± 0.6% | twofold higher |  |
| C[C@@H](O)[C@H](NC(=O)[C@@H]1CSSC[C@H](NC(=O)[C@@H](Cc2ccccc2)NC(=O)CN2CCN(CC(=O)O)CCN(CC(=O)O)CCN(CC(=O)O)CC2)C(=O)N[C@@H](Cc2ccc(O)cc2)C(=O)N[C@H](Cc2c[nH]c3ccccc23)C(=O)N[C@@H](CCCCN)C(=O)N[C@@H]([C@@H](C)O)C(=O)N1)C(=O)O [[^68Ga]Ga-DOTATATE, metal not drawn] |  |  |  |  |  |  |  | did not detect a further increase in tracer accumulation |
